Like-named read-outs stand apart in the source and are kept apart here.
Key:
[1] = PBPK model prediction of plasma PK (SimCYP simulator); parameters: species or system human
Description: The tegoprazan and M1 PBPK models were developed using SimCYP® simulator, version 20 (Certara, Princeton, NJ, USA). Compound libraries were incorporated into an in vitro dataset, including the microsomal clearance of tegoprazan and M1. Observed PK parameters were obtained from the aforementioned clinical studies (Table 1 and Table 2).
(§1) The absorption of tegoprazan was applied to the advanced dissolution, absorption, and metabolism (ADAM) model, and the diffusion layer model (DLM) built into SimCYP® was applied to the considered formulation and pH-dependent solubility of tegoprazan. The permeability of tegoprazan was determined by a Caco-2 permeability assay and optimized by parameter estimation. Caco-2 permeability was optimized such that the predicted concentration–time profiles were fitted to clinical study data. The metabolite was generated by the metabolism of the parent drug; therefore, absorption was not considered.
The tissue distribution in the PBPK model was predicted by the distribution model (e.g., Rodger and Rowland method, Poulin and Theil method) and the tissue:plasma partition coefficient (Kp) scalar for specific organ or global values. Predicted systemic distribution was expressed as the volume of distribution in a steady state (Vss). The Vd values of the clinical study were applied to the initial model of tegoprazan, and parameter estimation was used to determine the optimized Kp scalar fitted to the observed data. The Rodger and Rowland method (method 2) was applied to consider the weak base property and distribution of the neutral and ionic forms. The minimal PBPK model was applied to the M1 distribution module to reduce the complexity. The volume of a single adjusting compartment (Vsac), non-physiological compartment, input rate to SAC (kin), and elimination rate from SAC (kout) were estimated using the parameter estimation module within SimCYP®.
The elimination profiles of tegoprazan and M1 were obtained from in vitro, in vivo, and in silico predictions. Optimized in-house intrinsic clearance for CYPs (CLint,rCYPs), and human liver microsomal and cytosolic (HLM and HLC) clearance were applied to the elimination module of the tegoprazan model. Observed or estimated renal and biliary clearance were applied to the tegoprazan and M1 models. Whole-organ metabolic clearance, using the optimized value for the in vitro assay results, was applied to the M1 model.
The virtual dosing regimen was set to a single oral dose of 100 mg tegoprazan, to match that of the observed data. The simulation conditions were set for 100 virtual subjects who participated in 10 virtual clinical studies (1000 volunteers). The age range was 20 to 40 years, and the male-to-female ratio was 1:1. The predicted and observed PK parameters were compared to evaluate the model prediction results. […] If the predicted vs. observed ratio and its 95% CI were within the 30% range (0.7–1.3), the model was considered to fit well.
(§2) Postprandial PK profiles were predicted using an established model. Concentration–time profiles were obtained following a single oral dose (50 mg) of tegoprazan in the fasting state or 30 min after a high-fat diet. The predicted AUClast, Cmax, and Tmax values were compared with those of a previous clinical study.

[2] = parameters: method as in PMID 31437865; conditions: cited from earlier work
[3] = cited from earlier work
intragastric pH = system: intragastric pH; parameters: method as in PMID 31437865; conditions: Observed (n = 6), cited from earlier work
[4] = ADAM model prediction of regional absorption, gut metabolism, surface solubility and residence time; parameters: species or system human; conditions: at 30 min after a high-fat meal
Procedure: as §1, §2

porcine H^+/K^+-ATPase = conditions: experimental; read-out: half maximal inhibitory concentration (IC50); cited from earlier work
[5] = At 30 min after a high-fat meal, single 50 mg
[6] = single 100 mg tegoprazan, (95% confidence interval)
[7] = At 30 min after a high-fat meal, Observed (n = 12), single 50 mg, ref 34 (footnote; text: ref 16)

Compound: Cc1nc2cc(C(=O)N(C)C)cc(O[C@H]3CCOc4cc(F)cc(F)c43)c2[nH]1 [tegoprazan]
- increase of predicted Cmax at Day 7 compared with Day 1 ([1]; 100 mg once daily): approximately 1.84%
- AUC0–24 h Ratio (Predicted/Observed) [1, 5]: 0.88 (0.43–1.32)
- Cmax Ratio (Predicted/Observed) [1, 5]: 0.96 (0.32–1.59)
- AUC0–24 h Ratio (Predicted/Observed) ([1]; Fast, single 50 mg): 0.89 (0.45–1.33)
- Cmax Ratio (Predicted/Observed) ([1]; Fast, single 50 mg): 0.85 (0.62–1.09)
- decrease of predicted mean Cmax after a high-fat diet vs fasted state ([1]; single 50 mg): 31.3%
- AUC0–24 h Ratio (Predicted/Observed) [1, 6]: 0.90 (0.85–0.96)
- CL Ratio (Predicted/Observed) [1, 6]: 1.25 (1.17–1.34)
- Cmax Ratio (Predicted/Observed) [1, 6]: 0.88 (0.80–1.00)
- observed Cmax, Day 7 ([2]; 100 mg once daily for 7 days): 845.2 ± 40.7 ng/mL
- observed Cmax, Day 1 ([2]; 100 mg once daily): 1413.3 ± 24.7 ng/mL
- Tmax ([3]; At 30 min after a high-fat meal, Observed (n = 12), single 50 mg, median (min–max), ref 34 (footnote; text: ref 16)): 3.0 (0.5–8.0) h
- AUC0–24 h [3, 7]: 3017 ± 1194 ng·h/mL
- Cmax [3, 7]: 492.0 ± 293.9 ng/mL
- AUC0–24 h ([3]; Fast, Observed (n = 12), single 50 mg, mean ± SD, ref 34 (footnote; text: ref 16)): 2837 ± 1055 ng·h/mL
- Cmax ([3]; Fast, Observed (n = 12), single 50 mg, ref 34 (footnote; text: ref 16)): 803.0 ± 156.2 ng/mL
- Cmax ([3]; administered at 30 min after high-fat meal, observed): 492 ng/mL
- median Tmax ([3]; at 30 min before a high-fat meal, observed): 28.8 min
- Cmax ([3]; fasting state, observed): 803 ng/mL
- Cmax at 30 min after a high-fat meal compared with fasting state (decreased to) ([3]; observed): 38.7%
- pH ≥ 4 over 24 h (intragastric pH; 50 mg Single): 48.9%
- pH ≥ 4 over 24 h (intragastric pH; 100 mg q.d. for 7 Days, Day 1): 62.3%
- pH ≥ 4 over 24 h (intragastric pH; 100 mg q.d. for 7 Days, Day 7): 70.4%
- increase of predicted absorbed fraction in the duodenum, fed vs fasting [4]: approximately 72.7%
- increase of predicted mean residence time in the stomach, fed vs fasting [4]: approximately 170.4%
- increase of predicted surface solubility in the duodenum, fed vs fasted [4]: 40.3%
- increase of predicted surface solubility in the stomach, fed vs fasted [4]: 14.8%
- IC50 (porcine H^+/K^+-ATPase): 530 nM

Source: paper PMC9230797, “Integration of a Physiologically Based Pharmacokinetic and Pharmacodynamic Model for Tegoprazan and Its Metabolite: Application for Predicting Food Effect and Intragastric pH Alterations” (Pharmaceutics, 2022)
